The Aqueous solubility is the concentration that dissolves in the medium under given conditions.

The values below come from US11679984B2, “Composite sols” (Prebona AB, priority 2016, dated 2023).

The test system of the first series is fungal growth. Kind of series: Biocidal function: fungal growth on brushed bread slices. The class given is cell-based, fungi. The settings on record: French bread slices brushed on all sides, 14 days, dark, 18-20° C. An excerpt:
In this example the following solutions/materials were used: • 1. Deionized water • 2. Solution CuCl2.2H2O in deionized water, 571 ppm Cu • 3. Solution CuCl2.2H2O in deionized water, 1286 ppm Cu • 4. Cu containing sol of example 5 in Table 7a, 571 ppm Cu • 5. Cu containing sol of example 6 in Table 7a, 1286 ppm Cu
Slices of French bread from a local baker were used as substrates for fungal growth. The bread slices were as brushed on all sides with solutions 1-5. The bread slices on dinner plates were put in plastic bags (one slice on a plate to a bag), which were in a dark, closed room where the temperature varied between 18 and 20° C. over the day. After 14 days, the untreated bread slice was severely befouled and the slice seemed to be completely invaded by fungi.
For `O.O.[Cl-].[Cl-].[Cu+2]` [Cu solution containing 1286 ppm Cu, CuCl2.2H2O], the “Fungal growth on treated bread slice” value is listed as “Only little fungal growth”.

System in a further series: not given
Assay: not given
The conditions noted are these: 20° C.; cited from earlier work.
In the case of Fe(OH)2, the Aqueous solubility was 5.8 µM.
Regarding Cu(OH)2, the Aqueous solubility was 0.17 µM.
Regarding Fe(OH)3, the Aqueous solubility is 0.0002 µM.
Take Cd(OH)2: the Aqueous solubility was 18 µM.
For the compound Gd(OH)3, the Aqueous solubility is 0.52 µM.
As to Pb(OH)2, the Aqueous solubility was 6.7 µM.
